ChEMBL document CHEMBL1201862, “PubChem BioAssay data set” (2004)
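Five compound concentrations were applied to cells in 96-well plates for 48 hours; endpoints were derived by simple linear interpolation of the resulting dose-response curve. GI50 is the concentration that inhibits growth by half.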 The source made the active and inactive calls. Rule as the data show it: active = GI50 up to about 1.1 µM and inactive = higher.

Experiments:
Test in all cases: NCI tumour cell line growth inhibition, 48 h
A498 = test system: A498
A549 = test system: A549
ACHN = test system: ACHN
DU-145 = test system: DU-145
HCT-15 = test system: HCT-15
HOP-62 = test system: HOP-62
HT-29 = test system: HT-29
KM12 = test system: KM12
M14 = test system: M14
MCF7 = test system: MCF7
MDA-N = test system: MDA-N
NCI-H23 = test system: NCI-H23
NCI/ADR-RES = test system: NCI/ADR-RES
OVCAR-3 = test system: OVCAR-3
SK-MEL-2 = test system: SK-MEL-2
SK-OV-3 = test system: SK-OV-3
T47D = test system: T47D
TK-10 = test system: TK-10
UACC-62 = test system: UACC-62
HOP-92 = test system: HOP-92

**Q.** For `O=C(O)Cc1ccc2c(c1)/C(=C1/Nc3ccccc3C1=O)C(=O)N2`, which GI50 (A498) is on record?
**A.** 31.7 µM (inactive)

**Q.** What about the GI50 (A549) of the same compound?
**A.** 80.9 µM (inactive)

**Q.** What about the GI50 (ACHN) of the same compound?
**A.** 32.5 µM (inactive)

**Q.** What about the GI50 (DU-145) of the same compound?
**A.** 49.9 µM (inactive)

**Q.** And the GI50 (HCT-15)?
**A.** 27.6 µM

**Q.** What about the GI50 (HOP-62) of the same compound?
**A.** 51.8 µM (inactive)

**Q.** And the GI50 (HT-29)?
**A.** 38.8 µM (inactive)

**Q.** What about the GI50 (KM12) of the same compound?
**A.** 29.2 µM (inactive)

**Q.** And the GI50 (M14)?
**A.** 36.6 µM (inactive)

**Q.** And the GI50 (MCF7)?
**A.** 10.8 µM (inactive)

**Q.** What about the GI50 (MDA-N) of the same compound?
**A.** 38.4 µM (inactive)

**Q.** And the GI50 (NCI-H23)?
**A.** 39.6 µM (inactive)

**Q.** And the GI50 (NCI/ADR-RES)?
**A.** > 100 µM (inactive)

**Q.** What about the GI50 (OVCAR-3) of the same compound?
**A.** 14.1 µM (inactive)

**Q.** And the GI50 (SK-MEL-2)?
**A.** 40.9 µM (inactive)

**Q.** What about the GI50 (SK-OV-3) of the same compound?
**A.** 23.4 µM (inactive)

**Q.** And the GI50 (T47D)?
**A.** 7.71 µM (inactive)

**Q.** What about the GI50 (TK-10) of the same compound?
**A.** > 100 µM (inactive)

**Q.** And the GI50 (UACC-62)?
**A.** 24.4 µM (inactive)

**Q.** Which results are given for `O=c1[nH]nc(Cc2ccccc2)n1C1CC1`?
**A.** GI50 (A498): > 100 µM (inactive); GI50 (A549): > 100 µM (inactive); GI50 (ACHN): > 100 µM (inactive); GI50 (DU-145): > 100 µM (inactive); GI50 (HCT-15): > 100 µM; GI50 (HOP-62): > 100 µM (inactive); GI50 (HOP-92): > 100 µM (inactive); GI50 (HT-29): > 100 µM (inactive); GI50 (KM12): > 100 µM (inactive); GI50 (M14): > 100 µM (inactive); GI50 (MCF7): > 100 µM (inactive); GI50 (MDA-N): > 100 µM (inactive); GI50 (NCI-H23): > 100 µM (inactive); GI50 (NCI/ADR-RES): > 100 µM (inactive); GI50 (OVCAR-3): > 100 µM (inactive); GI50 (SK-OV-3): > 100 µM (inactive); GI50 (T47D): > 100 µM (inactive); GI50 (TK-10): > 100 µM (inactive); GI50 (UACC-62): > 100 µM (inactive)

**Q.** With `Cn1c2ccccc2c(=NNc2ccccc2C(=O)O)c2ccccc21` as the compound, how does the GI50 (A549) read?
**A.** 12.9 µM (inactive)

**Q.** What about the GI50 (ACHN) of the same compound?
**A.** 15.5 µM (inactive)

**Q.** And the GI50 (DU-145)?
**A.** 27.5 µM (inactive)

**Q.** And the GI50 (HCT-15)?
**A.** 7.87 µM

**Q.** What about the GI50 (HOP-62) of the same compound?
**A.** 23.1 µM (inactive)

**Q.** What about the GI50 (HOP-92) of the same compound?
**A.** 21.7 µM (inactive)

**Q.** What about the GI50 (HT-29) of the same compound?
**A.** 17.7 µM (inactive)

**Q.** And the GI50 (KM12)?
**A.** 12.7 µM (inactive)

**Q.** What about the GI50 (M14) of the same compound?
**A.** 22.6 µM (inactive)

**Q.** And the GI50 (MCF7)?
**A.** 10.9 µM (inactive)

**Q.** What about the GI50 (MDA-N) of the same compound?
**A.** 21.2 µM (inactive)

**Q.** And the GI50 (NCI-H23)?
**A.** 20.9 µM (inactive)

**Q.** And the GI50 (NCI/ADR-RES)?
**A.** 20.1 µM (inactive)

**Q.** What about the GI50 (OVCAR-3) of the same compound?
**A.** 10.8 µM (inactive)

**Q.** And the GI50 (SK-MEL-2)?
**A.** 18.7 µM (inactive)

**Q.** What about the GI50 (SK-OV-3) of the same compound?
**A.** 20.3 µM (inactive)

**Q.** What about the GI50 (T47D) of the same compound?
**A.** 20.3 µM (inactive)

**Q.** What about the GI50 (TK-10) of the same compound?
**A.** 32.1 µM (inactive)

**Q.** And the GI50 (UACC-62)?
**A.** 19.5 µM (inactive)

**Q.** For `O=c1[nH]c2nccn2c2c1SCCN2`, which GI50 (A498) is on record?
**A.** > 100 µM (inactive)

**Q.** And the GI50 (A549)?
**A.** > 100 µM (inactive)

**Q.** And the GI50 (ACHN)?
**A.** > 100 µM (inactive)

**Q.** And the GI50 (DU-145)?
**A.** > 100 µM (inactive)

**Q.** And the GI50 (HCT-15)?
**A.** > 100 µM

**Q.** What about the GI50 (HOP-62) of the same compound?
**A.** > 100 µM (inactive)

**Q.** And the GI50 (HT-29)?
**A.** > 100 µM (inactive)

**Q.** And the GI50 (KM12)?
**A.** > 100 µM (inactive)

**Q.** And the GI50 (M14)?
**A.** > 100 µM (inactive)

**Q.** What about the GI50 (MCF7) of the same compound?
**A.** > 100 µM (inactive)

**Q.** And the GI50 (MDA-N)?
**A.** > 100 µM (inactive)

**Q.** And the GI50 (NCI-H23)?
**A.** > 100 µM (inactive)

**Q.** And the GI50 (NCI/ADR-RES)?
**A.** > 100 µM (inactive)

**Q.** What about the GI50 (OVCAR-3) of the same compound?
**A.** > 100 µM (inactive)

**Q.** And the GI50 (SK-MEL-2)?
**A.** > 100 µM (inactive)

**Q.** And the GI50 (T47D)?
**A.** > 100 µM (inactive)

**Q.** What about the GI50 (TK-10) of the same compound?
**A.** > 100 µM (inactive)

**Q.** And the GI50 (UACC-62)?
**A.** > 100 µM (inactive)

**Q.** Which results are given for `CCOC(=O)C12OC(CCC1=O)C(C(=O)OC)=C2C(=O)OC` (stereo unspecified)?
**A.** GI50 (A498): > 10 µM (inactive); GI50 (A549): > 10 µM (inactive); GI50 (ACHN): > 10 µM (inactive); GI50 (DU-145): > 10 µM (inactive); GI50 (HCT-15): > 10 µM; GI50 (HOP-62): > 10 µM (inactive); GI50 (HT-29): > 10 µM (inactive); GI50 (KM12): > 10 µM (inactive); GI50 (M14): > 10 µM (inactive); GI50 (MCF7): > 10 µM (inactive); GI50 (MDA-N): > 10 µM (inactive); GI50 (NCI-H23): > 10 µM (inactive); GI50 (NCI/ADR-RES): > 10 µM (inactive); GI50 (OVCAR-3): > 10 µM (inactive); GI50 (SK-MEL-2): > 10 µM (inactive); GI50 (SK-OV-3): > 10 µM (inactive); GI50 (T47D): > 10 µM (inactive); GI50 (TK-10): > 10 µM (inactive); GI50 (UACC-62): > 10 µM (inactive)

**Q.** Which GI50 (A498) does the source give for `CON(C)C(=O)C(C)NC(=O)OC(C)(C)C` (stereo unspecified) here?
**A.** > 100 µM (inactive)

**Q.** What about the GI50 (A549) of the same compound?
**A.** > 100 µM (inactive)

**Q.** And the GI50 (ACHN)?
**A.** > 100 µM (inactive)

**Q.** And the GI50 (DU-145)?
**A.** > 100 µM (inactive)

**Q.** What about the GI50 (HCT-15) of the same compound?
**A.** > 100 µM

**Q.** And the GI50 (HOP-62)?
**A.** > 100 µM (inactive)

**Q.** And the GI50 (HOP-92)?
**A.** > 100 µM (inactive)

**Q.** And the GI50 (HT-29)?
**A.** > 100 µM (inactive)

**Q.** And the GI50 (KM12)?
**A.** > 100 µM (inactive)

**Q.** What about the GI50 (M14) of the same compound?
**A.** > 100 µM (inactive)

**Q.** What about the GI50 (MCF7) of the same compound?
**A.** > 100 µM (inactive)

**Q.** What about the GI50 (MDA-N) of the same compound?
**A.** > 100 µM (inactive)

**Q.** And the GI50 (NCI-H23)?
**A.** > 100 µM (inactive)

**Q.** And the GI50 (NCI/ADR-RES)?
**A.** > 100 µM (inactive)

**Q.** What about the GI50 (OVCAR-3) of the same compound?
**A.** > 100 µM (inactive)

**Q.** And the GI50 (SK-OV-3)?
**A.** > 100 µM (inactive)

**Q.** And the GI50 (T47D)?
**A.** > 100 µM (inactive)

**Q.** And the GI50 (TK-10)?
**A.** > 100 µM (inactive)

**Q.** What about the GI50 (UACC-62) of the same compound?
**A.** > 100 µM (inactive)

**Q.** For `C=C(C(=O)OC)[C@@H]1C[C@@H](OC(C)=O)C2=C[C@H](C[C@@]3(C)O[C@@H]3C3=CC(C)=C(O3)[C@H]1OC(C)=O)OC2=O` [BIPINNATIN I], which GI50 (A498) is on record?
**A.** 16.9 µM (inactive)

**Q.** What about the GI50 (A549) of the same compound?
**A.** 40.7 µM (inactive)

**Q.** What about the GI50 (ACHN) of the same compound?
**A.** 16.5 µM (inactive)

**Q.** What about the GI50 (DU-145) of the same compound?
**A.** 32.9 µM (inactive)

**Q.** What about the GI50 (HCT-15) of the same compound?
**A.** 17.5 µM

**Q.** What about the GI50 (HOP-62) of the same compound?
**A.** 22.7 µM (inactive)

**Q.** And the GI50 (HT-29)?
**A.** 6.24 µM (inactive)

**Q.** And the GI50 (KM12)?
**A.** 19.8 µM (inactive)

**Q.** And the GI50 (M14)?
**A.** 14.8 µM (inactive)

**Q.** What about the GI50 (MCF7) of the same compound?
**A.** 8.28 µM (inactive)

**Q.** And the GI50 (MDA-N)?
**A.** 19.4 µM (inactive)

**Q.** What about the GI50 (NCI-H23) of the same compound?
**A.** 14.5 µM (inactive)

**Q.** What about the GI50 (NCI/ADR-RES) of the same compound?
**A.** 32.9 µM (inactive)

**Q.** What about the GI50 (SK-MEL-2) of the same compound?
**A.** 31 µM (inactive)

**Q.** And the GI50 (SK-OV-3)?
**A.** 37.5 µM (inactive)

**Q.** What about the GI50 (T47D) of the same compound?
**A.** 12.7 µM (inactive)

**Q.** And the GI50 (TK-10)?
**A.** 16 µM (inactive)

**Q.** And the GI50 (UACC-62)?
**A.** 18.4 µM (inactive)
